Experimental data taken from US20260315612A1, “Topoisomerase Inhibitors, Methods of Making, and Methods of Use Thereof” (NJ Bio, Inc., priority 2023, published 2026).

System: SKBR-3 cell line (human breast cancer)
Assay: Cytotoxicity Assay (Cell titer glo, 72 h), SKBR-3
Assay type: cell-based
Conditions: for IC50: Homo sapiens, SK-BR-3, free payloads, 72 hours; for Normalized IC50 (PL IC50/DXD IC50): ratio of payload IC50 to DXD control IC50
Procedure: Day 1: 2,000 cells/well were plated and incubated at 37° C. overnight.
Day 2: Payload/ADC/vehicle control dilutions were made in respective media and added to cells. Volume added: 50 uL to each well. Starting treatment concentration was 1 mM for free payloads/1 μM for ADC's/10% for vehicle control and then diluted 10-fold down for a total of 11 treatment dilutions. Each concentration was analyzed in triplicates. Media-only wells were used as a control to calculate percent viability.
Day 5: Cell titer glow reagent (volume: 50 uL) was added to each well, the plate was shaken for 5 mins and the luminescence was recorded. Drug Treatment Time: 72 hours. Data Analysis: Percent viability was calculated by dividing the luminescence signal obtained for each treated well by the untreated well (media-only control) and multiplying by 100. Data was next transformed using X=Log (x) and then analyzed with nonlinear regression (curve fit), Dose Response inhibition−log (inhibitor) vs response (3 parameters) using PRISM software to determine the IC50 value.

Compound	IC50	Normalized IC50 (PL IC50/DXD IC50)
CC[C@@]1(O)C(=O)OCc2c1cc1n(c2=O)Cc2c-1nc1cc(F)c(C)cc1c2Cn1cc(COC2CCCCO2)nn1 (stereo partly shown) [Payload 1]	77.8 nM	8.67
CC[C@@]1(O)C(=O)OCc2c1cc1n(c2=O)Cc2c-1nc1cc(F)c(C)cc1c2Cn1cc(CO)nn1 [Payload 2]	80.9 nM	9.01
CC[C@@]1(O)C(=O)OCc2c1cc1n(c2=O)Cc2c-1nc1cc(F)c(C)cc1c2Cn1nncc1CO [Payload 3]	107 nM	11.97
CC[C@@]1(O)C(=O)OCc2c1cc1n(c2=O)Cc2c-1nc1cc(F)c(C)cc1c2Cn1cc(CNC(=O)OC(C)(C)C)nn1 [Payload 4]	126 nM	14.03
CC[C@@]1(O)C(=O)OCc2c1cc1n(c2=O)Cc2c-1nc1cc(F)c(C)cc1c2Cn1cc(CN)nn1 [Payload 5]	81.5 nM	18.99
CC[C@@]1(O)C(=O)OCc2c1cc1n(c2=O)Cc2c-1nc1cc(F)c(C)cc1c2Cn1cc(CNC)nn1 [Payload 6]	690 nM	94.92
CC[C@@]1(O)C(=O)OCc2c1cc1n(c2=O)Cc2c-1nc1cc(F)c(C)cc1c2Cn1cc(CNC(=O)CO)nn1 [Payload 7]	1830 nM	203.99
CC[C@@]1(O)C(=O)OCc2c1cc1n(c2=O)Cc2c-1nc1cc(F)c(C)cc1c2Cn1nncc1CN [Payload 8]	16.5 nM	1.84
CC[C@@]1(O)C(=O)OCc2c1cc1n(c2=O)Cc2c-1nc1cc(F)c(C)cc1c2Cn1nncc1CNC [Payload 9]	94.6 nM	13.01
CC[C@@]1(O)C(=O)OCc2c1cc1n(c2=O)Cc2c-1nc1cc(F)c(C)cc1c2Cn1cc(C(C)O)nn1 (stereo partly shown) [Payload 11]	194 nM	45.22
CC[C@@]1(O)C(=O)OCc2c1cc1n(c2=O)Cc2c-1nc1cc(F)c(C)cc1c2Cn1nnc(CO)c1CO [Payload 12]	374 nM	41.69
CC[C@@]1(O)C(=O)OCc2c1cc1n(c2=O)Cc2c-1nc1cc(F)c(C)cc1c2Cn1cc(-c2ccc(N)cc2)nn1 [Payload 13]	30.8 nM	6.84
CC[C@@]1(O)C(=O)OCc2c1cc1n(c2=O)Cc2c-1nc1cc(F)c(C)cc1c2Cn1cc(-c2ccc(NC(=O)CO)cc2)nn1 [Payload 15]	25.8 nM	27.79
CC[C@@]1(O)C(=O)OCc2c1cc1n(c2=O)Cc2c-1nc1cc(F)c(C)cc1c2Cn1cc(-c2cccc(N)c2)nn1 [Payload 16]	38.5 nM	8.55
CC[C@@]1(O)C(=O)OCc2c1cc1n(c2=O)Cc2c-1nc1cc(F)c(C)cc1c2Cn1cc(-c2ccccc2N)nn1 [Payload 19]	22.4 nM	4.96
CC[C@@]1(O)C(=O)OCc2c1cc1n(c2=O)Cc2c-1nc1cc(F)c(C)cc1c2Cn1cc(CN2CCNCC2)nn1 [Payload 22]	102 nM	20.02
CC[C@@]1(O)C(=O)OCc2c1cc1n(c2=O)Cc2c-1nc1cc(F)c(C)cc1c2Cn1cc(CN2CCC(CO)CC2)nn1 [Payload 23]	1250 nM	199.52
CC[C@@]1(O)C(=O)OCc2c1cc1n(c2=O)Cc2c-1nc1cc(F)c(C)cc1c2Cn1cc(CNC(=O)CN)nn1 [Payload 32]	336 nM	21.94
CC[C@@]1(O)C(=O)OCc2c1cc1n(c2=O)Cc2c-1nc1cc(F)c(C)cc1c2Cn1cc(CN2CCCC(N)C2)nn1 (stereo partly shown) [Payload 33]	32.9 nM	22.96
CC[C@@]1(O)C(=O)OCc2c1cc1n(c2=O)Cc2c-1nc1cc(F)c(C)cc1c2Cn1cc(CCN)nn1 [Payload 36]	1010 nM	203.63
CC[C@@]1(O)C(=O)OCc2c1cc1n(c2=O)Cc2c-1nc1cc(F)c(C)cc1c2Cn1cc(CCNC)nn1 [Payload 37]	50.8 nM	3.32
CC[C@@]1(O)C(=O)OCc2c1cc1n(c2=O)Cc2c-1nc1cc(F)c(C)cc1c2Cn1cc(CCNC(=O)CO)nn1 [Payload 38]	34.6 nM	37.23

Compound	IC50	Normalized IC50 (PL IC50/DXD IC50)
CC[C@@]1(O)C(=O)OCc2c1cc1n(c2=O)Cc2c-1nc1cc(F)c(C)cc1c2Cn1cc(CCO)nn1 [Payload 39]	4.63 nM	0.92
CC[C@@]1(O)C(=O)OCc2c1cc1n(c2=O)Cc2c-1nc1cc(F)c(C)cc1c2Cn1cc(-c2cc(F)cnc2N)nn1 [Payload 46]	3.68 nM	0.24
CC[C@@]1(O)C(=O)OCc2c1cc1n(c2=O)Cc2c-1nc1cc(F)c(C)cc1c2Cn1cc(C2(N)CC2)nn1 [Payload 47]	33.2 nM	4.86
CC[C@@]1(O)C(=O)OCc2c1cc1n(c2=O)Cc2c-1nc1cc(F)c(C)cc1c2Cn1cc(-c2cccc(N)n2)nn1 [Payload 48]	40.2 nM	–
CC[C@@]1(O)C(=O)OCc2c1cc1n(c2=O)Cc2c-1nc1cc(F)c(C)cc1c2Cn1cc(-c2cccnc2N)nn1 [Payload 49]	8.14 nM	1.30
CC[C@@]1(O)C(=O)OCc2c1cc1n(c2=O)Cc2c-1nc1cc(F)c(C)cc1c2Cn1cc(C(C)N)nn1 (stereo partly shown) [Payload 50]	18.6 nM	3.72
CC[C@@]1(O)C(=O)OCc2c1cc1n(c2=O)Cc2c-1nc1cc(F)c(C)cc1c2Cn1cc(C(C)(C)N)nn1 [Payload 51]	15.3 nM	3.05
CC[C@@]1(O)C(=O)OCc2c1cc1n(c2=O)Cc2c-1nc1cc(F)c(C)cc1c2Cn1cc(-c2ccc(N)nc2)nn1 [Payload 52]	18 nM	2.88
CC[C@@]1(O)C(=O)OCc2c1cc1n(c2=O)Cc2c-1nc1cc(F)c(C)cc1c2Cn1cc(CCCN)nn1 [Payload 53]	18 nM	3.60
CC[C@@]1(O)C(=O)OCc2c1cc1n(c2=O)Cc2c-1nc1cc(F)c(C)cc1c2Cn1cc(CN2CCCCC2CO)nn1 (stereo partly shown) [Payload 54]	8.94 nM	6.24
CC[C@@]1(O)C(=O)OCc2c1cc1n(c2=O)Cc2c-1nc1cc(F)c(C)cc1c2Cn1cc(COCCN)nn1 [Payload 55]	25.2 nM	17.60
CC[C@@]1(O)C(=O)OCc2c1cc1n(c2=O)Cc2c-1nc1cc(F)c(C)cc1c2Cn1cc(CN2CCCC(CO)C2)nn1 (stereo partly shown) [Payload 56]	10.1 nM	7.05
CC[C@@]1(O)C(=O)OCc2c1cc1n(c2=O)Cc2c-1nc1cc(F)c(C)cc1c2Cn1cc(C2CCCN2)nn1 (stereo partly shown) [Payload 57]	18.3 nM	12.80
CC[C@@]1(O)C(=O)OCc2c1cc1n(c2=O)Cc2c-1nc1cc(F)c(C)cc1c2Cn1cc(CN2CCOC(CN)C2)nn1 (stereo partly shown) [Payload 58]	30.5 nM	23.79
CC[C@@]1(O)C(=O)OCc2c1cc1n(c2=O)Cc2c-1nc1cc(F)c(C)cc1c2Cn1cc(CCCO)nn1 [Payload 59]	4.03 nM	4.84
CC[C@@]1(O)C(=O)OCc2c1cc1n(c2=O)Cc2c-1nc1cc(F)c(C)cc1c2Cn1cc(CN2CCN(C(=O)CO)CC2)nn1 [Payload 60]	284 nM	338.2
CC[C@@]1(O)C(=O)OCc2c1cc1n(c2=O)Cc2c-1nc1cc(F)c(C)cc1c2Cn1cc(C2CCCN2C(=O)CO)nn1 (stereo partly shown) [Payload 61]	211 nM	177.62
CC[C@@]1(O)C(=O)OCc2c1cc1n(c2=O)Cc2c-1nc1cc(F)c(C)cc1c2Cn1cc(CN2CCOC(CNC(=O)CO)C2)nn1 (stereo partly shown) [Payload 62]	2040 nM	1714.88
CC[C@@]1(O)C(=O)OCc2c1cc1n(c2=O)Cc2c-1nc1cc(F)c(C)cc1c2Cn1cc(C2(NC(=O)CO)CC2)nn1 [Payload 63]	41 nM	44.21
CC[C@@]1(O)C(=O)OCc2c1cc1n(c2=O)Cc2c-1nc1cc(F)c(C)cc1c2Cn1cc(C(C)NC(=O)CO)nn1 (stereo partly shown) [Payload 64]	20.6 nM	22.21
CC[C@@]1(O)C(=O)OCc2c1cc1n(c2=O)Cc2c-1nc1cc(F)c(C)cc1c2Cn1nncc1CCO [Payload 65]	134 nM	18.50
